The values that follow come from US10231954B2, “Neurodegenerative therapies” (LYTIX BIOPHARMA AS, priority 2014, dated 2019).

SMILES strings stand for the structures. Like-named read-outs stand apart in the source and are kept apart here.

Holding throughout (assay type): biochemical
One assay concerns the target T1, PKD1 (Homo sapiens, UniProt Q15139).
T1 sequence (Q15139 1-912): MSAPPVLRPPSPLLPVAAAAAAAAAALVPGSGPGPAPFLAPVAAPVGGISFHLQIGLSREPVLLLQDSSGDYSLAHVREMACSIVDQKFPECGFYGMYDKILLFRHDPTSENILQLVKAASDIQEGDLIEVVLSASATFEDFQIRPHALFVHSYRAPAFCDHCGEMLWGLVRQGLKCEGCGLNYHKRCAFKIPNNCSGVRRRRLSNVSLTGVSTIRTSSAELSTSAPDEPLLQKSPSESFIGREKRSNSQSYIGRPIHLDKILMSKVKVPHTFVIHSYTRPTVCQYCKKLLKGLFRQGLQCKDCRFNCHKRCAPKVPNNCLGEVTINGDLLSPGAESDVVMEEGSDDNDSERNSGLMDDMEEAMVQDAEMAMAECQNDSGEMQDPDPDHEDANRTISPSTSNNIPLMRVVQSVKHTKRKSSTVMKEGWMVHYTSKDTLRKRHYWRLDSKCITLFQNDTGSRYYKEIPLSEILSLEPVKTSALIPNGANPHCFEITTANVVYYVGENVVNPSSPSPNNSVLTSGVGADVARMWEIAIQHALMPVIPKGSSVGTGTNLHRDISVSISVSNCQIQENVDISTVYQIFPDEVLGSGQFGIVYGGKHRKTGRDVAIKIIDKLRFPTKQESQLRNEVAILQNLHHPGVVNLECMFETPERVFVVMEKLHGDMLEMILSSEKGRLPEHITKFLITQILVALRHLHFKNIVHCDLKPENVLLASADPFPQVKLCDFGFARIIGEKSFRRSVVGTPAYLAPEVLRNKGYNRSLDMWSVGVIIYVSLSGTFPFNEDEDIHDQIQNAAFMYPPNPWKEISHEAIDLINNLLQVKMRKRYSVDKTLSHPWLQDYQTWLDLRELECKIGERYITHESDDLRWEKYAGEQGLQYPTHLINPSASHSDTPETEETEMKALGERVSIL
Description: Kinase profiling PKD1. The settings on record: for remaining activity at 100 µM: read-out: residual kinase activity, PKD1. The text has this: (§1) Any value less that 25 is considered to be highly significant inhibition.

In another assay the target is T2, TBK1 (Homo sapiens, UniProt Q9UHD2).
T2 sequence (Q9UHD2 1-729): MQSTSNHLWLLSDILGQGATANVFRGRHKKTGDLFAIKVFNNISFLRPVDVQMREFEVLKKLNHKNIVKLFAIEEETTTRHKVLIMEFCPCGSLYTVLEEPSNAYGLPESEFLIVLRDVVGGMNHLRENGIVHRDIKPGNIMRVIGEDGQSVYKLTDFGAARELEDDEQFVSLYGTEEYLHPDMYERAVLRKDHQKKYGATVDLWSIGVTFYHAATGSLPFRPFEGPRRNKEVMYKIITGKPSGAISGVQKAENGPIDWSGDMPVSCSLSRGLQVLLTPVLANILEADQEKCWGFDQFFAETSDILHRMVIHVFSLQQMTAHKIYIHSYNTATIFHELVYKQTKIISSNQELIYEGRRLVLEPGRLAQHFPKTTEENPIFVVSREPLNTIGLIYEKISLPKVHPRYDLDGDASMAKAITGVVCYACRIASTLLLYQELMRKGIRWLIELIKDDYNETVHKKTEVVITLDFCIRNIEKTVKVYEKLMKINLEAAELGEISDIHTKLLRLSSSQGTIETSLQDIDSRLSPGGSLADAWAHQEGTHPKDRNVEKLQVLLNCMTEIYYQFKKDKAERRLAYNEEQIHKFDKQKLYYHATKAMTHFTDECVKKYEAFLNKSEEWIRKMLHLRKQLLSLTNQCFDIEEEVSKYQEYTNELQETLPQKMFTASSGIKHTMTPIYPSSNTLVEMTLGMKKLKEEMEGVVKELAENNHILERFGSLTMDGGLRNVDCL
The experiment in a line: Kinase profiling TBK1. The settings on record: for remaining activity at 100 µM: read-out: residual kinase activity, TBK1.
Excerpt: as §1

A further assay has as its target PLK1 (Homo sapiens, UniProt P53350). Description: Kinase profiling PLK1. The settings on record: for remaining activity at 100 µM: read-out: residual kinase activity, PLK1.
Excerpt: as §1

A further assay addresses ROCK 2 (Homo sapiens, UniProt O75116). Description: Kinase profiling ROCK 2. Particulars: for remaining activity at 100 µM: read-out: residual kinase activity, ROCK 2.
Excerpt: as §1

The next assay deals with MLK3 (Homo sapiens, UniProt Q16584). The experiment in a line: Kinase profiling MLK3. The settings on record: for remaining activity at 100 µM: read-out: residual kinase activity, MLK3.
Sequence of MLK3 (Q16584 whole entry, species assumed): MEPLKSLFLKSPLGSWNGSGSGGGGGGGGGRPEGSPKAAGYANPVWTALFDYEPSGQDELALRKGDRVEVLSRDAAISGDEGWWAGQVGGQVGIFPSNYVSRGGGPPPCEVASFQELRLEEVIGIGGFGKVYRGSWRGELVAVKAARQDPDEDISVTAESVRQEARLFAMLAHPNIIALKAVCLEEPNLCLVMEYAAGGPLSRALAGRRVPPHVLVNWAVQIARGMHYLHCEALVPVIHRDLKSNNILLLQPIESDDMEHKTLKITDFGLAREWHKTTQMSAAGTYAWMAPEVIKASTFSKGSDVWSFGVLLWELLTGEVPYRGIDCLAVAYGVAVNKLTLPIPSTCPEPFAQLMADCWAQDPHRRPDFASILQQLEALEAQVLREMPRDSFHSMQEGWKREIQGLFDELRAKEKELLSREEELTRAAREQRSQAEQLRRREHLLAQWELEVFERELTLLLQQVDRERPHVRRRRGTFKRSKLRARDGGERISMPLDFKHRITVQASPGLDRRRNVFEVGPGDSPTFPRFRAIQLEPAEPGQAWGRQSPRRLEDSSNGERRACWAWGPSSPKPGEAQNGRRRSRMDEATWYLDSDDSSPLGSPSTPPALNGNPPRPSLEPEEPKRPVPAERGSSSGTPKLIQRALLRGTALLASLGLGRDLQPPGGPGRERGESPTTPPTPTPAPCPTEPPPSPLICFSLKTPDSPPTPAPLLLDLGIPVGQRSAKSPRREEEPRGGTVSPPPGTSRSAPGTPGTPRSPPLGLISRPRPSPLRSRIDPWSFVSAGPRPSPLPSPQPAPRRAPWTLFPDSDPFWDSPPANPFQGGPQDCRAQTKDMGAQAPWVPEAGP
Excerpt: as §1

A further assay deals with CAMK1 (Homo sapiens, UniProt Q14012). The experiment in a line: Kinase profiling CAMK1. Particulars: for remaining activity at 100 µM: read-out: residual kinase activity, CAMK1.
Sequence of CAMK1 (Q14012 whole entry, species assumed): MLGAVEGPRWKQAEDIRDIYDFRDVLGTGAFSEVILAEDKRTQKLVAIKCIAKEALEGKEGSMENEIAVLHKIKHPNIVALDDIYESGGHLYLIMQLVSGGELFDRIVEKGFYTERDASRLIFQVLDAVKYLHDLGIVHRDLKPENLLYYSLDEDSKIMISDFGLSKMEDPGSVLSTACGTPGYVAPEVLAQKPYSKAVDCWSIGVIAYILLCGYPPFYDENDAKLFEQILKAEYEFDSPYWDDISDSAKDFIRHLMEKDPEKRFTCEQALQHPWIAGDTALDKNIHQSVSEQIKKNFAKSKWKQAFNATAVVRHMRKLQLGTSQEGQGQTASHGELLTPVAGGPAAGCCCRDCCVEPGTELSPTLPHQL
Excerpt: as §1

The next assay addresses CHK2 (Homo sapiens, UniProt O96017). Description: Kinase profiling CHK2. The settings on record: for remaining activity at 100 µM: read-out: residual kinase activity, CHK2.
Excerpt: as §1

The target of a further assay is JNK1 (Homo sapiens, UniProt P45983). The experiment in a line: Kinase profiling JNK1. The settings on record: for remaining activity at 100 µM: read-out: residual kinase activity, JNK1.
Sequence of JNK1 (P45983 whole entry, species assumed): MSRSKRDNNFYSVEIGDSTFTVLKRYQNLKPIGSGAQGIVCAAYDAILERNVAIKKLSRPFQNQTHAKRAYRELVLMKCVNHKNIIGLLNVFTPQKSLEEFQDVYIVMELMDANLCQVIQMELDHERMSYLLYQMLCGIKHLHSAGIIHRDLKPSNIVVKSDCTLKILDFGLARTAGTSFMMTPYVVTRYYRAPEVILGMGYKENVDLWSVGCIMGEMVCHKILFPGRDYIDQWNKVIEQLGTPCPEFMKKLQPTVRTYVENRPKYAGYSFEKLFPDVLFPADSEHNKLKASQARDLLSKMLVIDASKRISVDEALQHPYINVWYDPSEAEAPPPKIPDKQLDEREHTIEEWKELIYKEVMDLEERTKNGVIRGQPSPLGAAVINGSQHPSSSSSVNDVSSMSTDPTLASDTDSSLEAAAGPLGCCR
Excerpt: as §1

For the next assay, the target named is T3, PKCz (Homo sapiens, UniProt Q05513).
T3 sequence (Q05513 1-592): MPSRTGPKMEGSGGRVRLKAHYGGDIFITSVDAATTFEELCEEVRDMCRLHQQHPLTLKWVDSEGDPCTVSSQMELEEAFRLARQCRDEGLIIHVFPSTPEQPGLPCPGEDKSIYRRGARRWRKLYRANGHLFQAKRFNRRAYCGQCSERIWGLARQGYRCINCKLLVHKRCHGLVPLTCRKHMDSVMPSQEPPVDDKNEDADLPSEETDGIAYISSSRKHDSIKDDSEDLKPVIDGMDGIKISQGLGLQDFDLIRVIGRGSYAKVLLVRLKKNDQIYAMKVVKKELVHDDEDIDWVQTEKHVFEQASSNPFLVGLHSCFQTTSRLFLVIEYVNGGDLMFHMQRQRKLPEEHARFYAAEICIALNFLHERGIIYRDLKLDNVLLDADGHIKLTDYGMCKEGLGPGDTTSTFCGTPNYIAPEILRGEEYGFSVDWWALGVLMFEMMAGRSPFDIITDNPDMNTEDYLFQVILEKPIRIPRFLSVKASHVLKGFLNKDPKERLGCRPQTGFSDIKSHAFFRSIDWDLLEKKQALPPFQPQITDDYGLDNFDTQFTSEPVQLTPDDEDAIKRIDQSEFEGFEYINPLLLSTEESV
Description: Kinase profiling PKCz. The settings on record: for remaining activity at 100 µM: read-out: residual kinase activity, PKCz.
Excerpt: as §1

[1] abbreviates: 100 micromolar inhibitor concentration, 100 is no change.
The mark [2] stands for this setting: 100 micromolar inhibitor, 100 = no change.

Sequence of ROCK 2 (O75116 whole entry, species assumed): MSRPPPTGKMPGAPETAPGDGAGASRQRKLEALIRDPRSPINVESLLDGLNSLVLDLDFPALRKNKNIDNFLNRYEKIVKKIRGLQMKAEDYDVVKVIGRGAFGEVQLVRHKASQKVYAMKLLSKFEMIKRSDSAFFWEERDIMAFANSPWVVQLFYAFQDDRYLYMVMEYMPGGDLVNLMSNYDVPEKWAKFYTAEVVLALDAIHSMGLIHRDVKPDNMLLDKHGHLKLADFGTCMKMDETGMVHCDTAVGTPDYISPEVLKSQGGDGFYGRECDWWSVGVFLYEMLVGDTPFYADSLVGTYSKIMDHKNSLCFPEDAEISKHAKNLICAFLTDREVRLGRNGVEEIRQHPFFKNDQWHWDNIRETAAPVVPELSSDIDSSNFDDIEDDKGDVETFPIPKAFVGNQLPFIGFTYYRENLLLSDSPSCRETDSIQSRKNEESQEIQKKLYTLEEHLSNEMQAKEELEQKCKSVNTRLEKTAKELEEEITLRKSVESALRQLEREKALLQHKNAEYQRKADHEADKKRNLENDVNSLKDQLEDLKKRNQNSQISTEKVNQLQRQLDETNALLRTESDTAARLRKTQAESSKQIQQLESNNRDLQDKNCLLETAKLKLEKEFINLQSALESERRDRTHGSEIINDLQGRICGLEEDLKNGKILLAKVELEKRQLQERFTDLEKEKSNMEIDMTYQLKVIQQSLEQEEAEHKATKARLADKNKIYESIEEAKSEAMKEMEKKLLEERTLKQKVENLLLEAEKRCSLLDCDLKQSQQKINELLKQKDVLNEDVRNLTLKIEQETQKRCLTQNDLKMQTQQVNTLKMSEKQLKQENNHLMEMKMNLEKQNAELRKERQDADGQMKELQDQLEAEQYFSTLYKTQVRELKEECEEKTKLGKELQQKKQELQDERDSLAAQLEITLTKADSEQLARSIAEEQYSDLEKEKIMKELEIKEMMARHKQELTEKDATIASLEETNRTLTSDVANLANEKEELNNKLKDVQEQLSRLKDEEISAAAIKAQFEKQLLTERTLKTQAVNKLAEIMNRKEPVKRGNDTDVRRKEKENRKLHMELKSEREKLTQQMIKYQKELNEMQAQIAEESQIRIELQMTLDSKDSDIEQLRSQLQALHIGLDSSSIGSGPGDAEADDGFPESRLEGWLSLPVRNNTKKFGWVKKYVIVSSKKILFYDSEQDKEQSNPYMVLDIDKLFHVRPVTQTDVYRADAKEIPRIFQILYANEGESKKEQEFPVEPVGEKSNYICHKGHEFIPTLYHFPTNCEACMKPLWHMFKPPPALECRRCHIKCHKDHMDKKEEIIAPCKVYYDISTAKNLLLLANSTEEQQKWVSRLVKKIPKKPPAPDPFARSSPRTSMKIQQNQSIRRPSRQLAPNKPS
Sequence of PLK1 (P53350 whole entry, species assumed): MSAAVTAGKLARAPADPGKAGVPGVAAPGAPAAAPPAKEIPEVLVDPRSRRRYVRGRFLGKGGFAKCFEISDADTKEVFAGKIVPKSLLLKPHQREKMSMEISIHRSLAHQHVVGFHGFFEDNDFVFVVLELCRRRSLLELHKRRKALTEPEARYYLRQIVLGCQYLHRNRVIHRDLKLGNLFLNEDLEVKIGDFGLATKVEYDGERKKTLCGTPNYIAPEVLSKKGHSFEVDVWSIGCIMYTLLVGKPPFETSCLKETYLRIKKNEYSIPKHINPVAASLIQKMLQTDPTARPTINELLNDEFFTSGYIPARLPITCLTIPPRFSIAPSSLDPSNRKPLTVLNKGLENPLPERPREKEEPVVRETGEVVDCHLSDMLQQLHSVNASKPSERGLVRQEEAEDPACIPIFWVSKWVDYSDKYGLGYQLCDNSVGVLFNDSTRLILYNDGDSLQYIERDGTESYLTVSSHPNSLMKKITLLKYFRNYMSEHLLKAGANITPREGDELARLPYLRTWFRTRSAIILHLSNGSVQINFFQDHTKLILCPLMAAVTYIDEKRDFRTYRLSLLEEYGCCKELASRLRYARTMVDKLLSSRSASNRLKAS
Sequence of CHK2 (O96017 whole entry, species assumed): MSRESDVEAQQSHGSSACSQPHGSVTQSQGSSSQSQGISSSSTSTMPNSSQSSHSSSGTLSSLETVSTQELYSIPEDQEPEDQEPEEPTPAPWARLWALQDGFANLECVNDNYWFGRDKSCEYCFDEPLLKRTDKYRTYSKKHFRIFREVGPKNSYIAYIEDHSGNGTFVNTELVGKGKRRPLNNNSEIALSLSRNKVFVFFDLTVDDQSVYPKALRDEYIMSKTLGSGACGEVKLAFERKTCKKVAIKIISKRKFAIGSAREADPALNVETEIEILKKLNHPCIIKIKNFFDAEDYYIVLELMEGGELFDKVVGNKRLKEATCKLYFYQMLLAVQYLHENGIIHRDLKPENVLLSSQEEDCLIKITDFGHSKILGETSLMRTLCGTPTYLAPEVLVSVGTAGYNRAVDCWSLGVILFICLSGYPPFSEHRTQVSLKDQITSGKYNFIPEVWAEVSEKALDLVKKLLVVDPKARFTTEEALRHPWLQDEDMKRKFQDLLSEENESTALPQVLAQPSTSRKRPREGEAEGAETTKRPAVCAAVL

Turning to `CC(=O)Nc1nc2cc(O)ccc2s1` [Compound 01-66, N-(5-hydroxybenzo[d]thiazol-2-yl)acetamide], the remaining activity at 100 µM came out at 30% on PKD1; 60% on TBK1; 103% at PLK1; 56% on ROCK 2; 41% on MLK3; 69% at CAMK1. For the same molecule, the remaining activity at 100 µM was determined as 31% at CHK2, 53% on JNK1 and 98% on PKCz.

With `CC(=O)Nc1nc2ccc(O)cc2s1` [Compound 01-71], the remaining activity at 100 µM at PKD1 (setting [1]) was 37%; at TBK1 (setting [1]) it was 43%; on PLK1 (setting [1]), 97%; at ROCK 2 (setting [1]) it was 34%; at MLK3 (setting [1]), 15%; on CAMK1 (setting [1]), 52%. The remaining activity at 100 µM on CHK2 (setting [1]) amounted to 17%; at JNK1 (setting [1]) it was 72%; on PKCz (setting [1]), 74%.

Regarding `CC(=O)Nc1nc2ccc(C(F)(F)F)cc2s1` [Compound 01-90], the remaining activity at 100 µM on PKD1 (setting [1]) worked out at 119%; on TBK1 (setting [1]), 83%; at PLK1 (setting [1]), 80%; at ROCK 2 (setting [1]), 80%; at MLK3 (setting [1]), 51%; on CAMK1 (setting [1]), 64%. Besides, the remaining activity at 100 µM at CHK2 (setting [1]) was determined as 43%; at JNK1 (setting [1]), 104%; on PKCz (setting [1]), 81%.

In the case of `CC(=O)Nc1nc2ccc(C#N)cc2s1` [Compound 01-94], the remaining activity at 100 µM was determined as 97% at PKD1 (setting [1]); 41% at TBK1 (setting [1]); 108% at PLK1 (setting [1]); 69% at ROCK 2 (setting [1]); 55% at MLK3 (setting [1]); 80% at CAMK1 (setting [1]). Moreover, the remaining activity at 100 µM on CHK2 (setting [1]) was 30%; at JNK1 (setting [1]), 90%; at PKCz (setting [1]), 80%.

As to `CC(=O)Nc1cccc(C(=O)Nc2nc3ccc(O)cc3s2)c1` [Compound 03-58], the “residual kinase activity, PKD1” value at PKD1 (setting [1]) is 54. Further, the “residual kinase activity, ROCK 2” value at ROCK 2 (setting [1]) was 10. Besides, on JNK1 (setting [1]), the “residual kinase activity, JNK1” value is recorded as 80. In addition, the “residual kinase activity, PKCz” value on PKCz (setting [1]) is given as 84.

With `CC(=O)NC(C)C(=O)Nc1nc2ccc(C(F)(F)F)cc2s1` (stereo not drawn) [Compound 03-80], on PKD1 (setting [1]), the “residual kinase activity, PKD1” value is on record as 82. Further, on ROCK 2 (setting [1]), the “residual kinase activity, ROCK 2” value was 80. For the same molecule, at JNK1 (setting [1]), the “residual kinase activity, JNK1” value worked out at 86. The “residual kinase activity, PKCz” value at PKCz (setting [1]) was 75.

With `CC(=O)Nc1ccccc1C(=O)Nc1nc2ccc(O)cc2s1` [Compound 08-39], the “residual kinase activity, PKD1” value on PKD1 (setting [1]) came out at 32. Also, at ROCK 2 (setting [1]), the “residual kinase activity, ROCK 2” value came out at 22. Also, the “residual kinase activity, JNK1” value on JNK1 (setting [1]) is 92. Besides, the “residual kinase activity, PKCz” value on PKCz (setting [1]) stood at 38.

As to `COc1cccc(NC(=O)Nc2nc3cc(O)ccc3s2)c1` [Compound 13-62], the “residual kinase activity, PKD1” value on PKD1 (setting [2]) was found to be 41. Moreover, the “residual kinase activity, TBK1” value on TBK1 (setting [2]) was 48. Moreover, the “residual kinase activity, PLK1” value at PLK1 (setting [2]) worked out at 98. The “residual kinase activity, ROCK 2” value at ROCK 2 (setting [2]) is on record as 11. In addition, at MLK3 (setting [2]), the “residual kinase activity, MLK3” value is reported as 13. Further, the “residual kinase activity, CAMK1” value at CAMK1 (setting [2]) turned out to be 8. The “residual kinase activity, CHK2” value on CHK2 (setting [2]) turned out to be 18. In addition, on JNK1 (setting [2]), the “residual kinase activity, JNK1” value worked out at 114.

Take `COc1ccc2sc(NC(=O)c3ccc(NC(C)=O)cc3)nc2c1` [MS:LY-2-77]: on PKD1 (setting [1]), the “residual kinase activity, PKD1” value is on record as 114. Also, at ROCK 2 (setting [1]), the “residual kinase activity, ROCK 2” value is 96. Moreover, the “residual kinase activity, JNK1” value at JNK1 (setting [1]) was 104. Further, the “residual kinase activity, PKCz” value at PKCz (setting [1]) turned out to be 107.

Consider `COc1ccc2sc(NC(=O)c3cccc(NC(C)=O)c3)nc2c1` [MS:LY-2-85], for which the “residual kinase activity, PKD1” value on PKD1 (setting [1]) was 49. In addition, on ROCK 2 (setting [1]), the “residual kinase activity, ROCK 2” value amounted to 29. The “residual kinase activity, JNK1” value on JNK1 (setting [1]) is on record as 97. The “residual kinase activity, PKCz” value at PKCz (setting [1]) amounted to 101.

With `CC(=O)Nc1ccc(C(=O)Nc2nc3cc(O)ccc3s2)cc1` [MS:LY-2-87], the “residual kinase activity, PKD1” value at PKD1 (setting [1]) is reported as 52. Moreover, on ROCK 2 (setting [1]), the “residual kinase activity, ROCK 2” value is 38. Moreover, the “residual kinase activity, JNK1” value at JNK1 (setting [1]) amounted to 105. For the same molecule, the “residual kinase activity, PKCz” value at PKCz (setting [1]) is 83.

As to `CC(=O)Nc1cccc(C(=O)Nc2nc3cc(O)ccc3s2)c1` [MS:LY-2-89], the “residual kinase activity, PKD1” value at PKD1 (setting [1]) worked out at 22. The “residual kinase activity, ROCK 2” value on ROCK 2 (setting [1]) worked out at 11. For the same molecule, the “residual kinase activity, JNK1” value on JNK1 (setting [1]) is 68. Also, on PKCz (setting [1]), the “residual kinase activity, PKCz” value was determined as 80.
